Common to all, as to assay type: biochemical
One experiment concerns the target PI3Kγ (Homo sapiens, UniProt P48736). Kind of experiment: PI3K-gamma fluorescence polarization assay. Particulars: 20 μM PIP2, 25 μM ATP; read-out: PI3Kγ Median IC50. The method, boiled down: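 Enzyme preincubated with compound in 20 mM HEPES pH 7.5, 2 mM MgCl2, 0.05% CHAPS, 0.01% βME; reaction started with substrate giving 20 μM diC8 PIP2 and 25 μM ATP final, run 30-60 min at room temperature. Stopped with TAMRA-labelled PIP3 detector probe plus GST-GRP; PIP3 formation read by fluorescence polarization after 90-110 min.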

The next experiment addresses T1, mTOR Kinase (FLAG-TOR) (Homo sapiens, UniProt P42345).
T1 construct: FLAG
Kind of experiment: mTOR kinase assay, purified enzyme, DELFIA format. Particulars: 100 μM ATP, 1.25 μM His6-S6K; read-out: mTOR Kinase Median IC50.

In the next experiment the target is PI3Kα (Homo sapiens, UniProt P42336). The experiment is described as follows: PI3K-alpha fluorescence polarization assay. The following applies: 20 μM PIP2, 25 μM ATP; read-out: PI3Kα Median IC50.
Sequence of PI3Kα (P42336 whole entry, species assumed): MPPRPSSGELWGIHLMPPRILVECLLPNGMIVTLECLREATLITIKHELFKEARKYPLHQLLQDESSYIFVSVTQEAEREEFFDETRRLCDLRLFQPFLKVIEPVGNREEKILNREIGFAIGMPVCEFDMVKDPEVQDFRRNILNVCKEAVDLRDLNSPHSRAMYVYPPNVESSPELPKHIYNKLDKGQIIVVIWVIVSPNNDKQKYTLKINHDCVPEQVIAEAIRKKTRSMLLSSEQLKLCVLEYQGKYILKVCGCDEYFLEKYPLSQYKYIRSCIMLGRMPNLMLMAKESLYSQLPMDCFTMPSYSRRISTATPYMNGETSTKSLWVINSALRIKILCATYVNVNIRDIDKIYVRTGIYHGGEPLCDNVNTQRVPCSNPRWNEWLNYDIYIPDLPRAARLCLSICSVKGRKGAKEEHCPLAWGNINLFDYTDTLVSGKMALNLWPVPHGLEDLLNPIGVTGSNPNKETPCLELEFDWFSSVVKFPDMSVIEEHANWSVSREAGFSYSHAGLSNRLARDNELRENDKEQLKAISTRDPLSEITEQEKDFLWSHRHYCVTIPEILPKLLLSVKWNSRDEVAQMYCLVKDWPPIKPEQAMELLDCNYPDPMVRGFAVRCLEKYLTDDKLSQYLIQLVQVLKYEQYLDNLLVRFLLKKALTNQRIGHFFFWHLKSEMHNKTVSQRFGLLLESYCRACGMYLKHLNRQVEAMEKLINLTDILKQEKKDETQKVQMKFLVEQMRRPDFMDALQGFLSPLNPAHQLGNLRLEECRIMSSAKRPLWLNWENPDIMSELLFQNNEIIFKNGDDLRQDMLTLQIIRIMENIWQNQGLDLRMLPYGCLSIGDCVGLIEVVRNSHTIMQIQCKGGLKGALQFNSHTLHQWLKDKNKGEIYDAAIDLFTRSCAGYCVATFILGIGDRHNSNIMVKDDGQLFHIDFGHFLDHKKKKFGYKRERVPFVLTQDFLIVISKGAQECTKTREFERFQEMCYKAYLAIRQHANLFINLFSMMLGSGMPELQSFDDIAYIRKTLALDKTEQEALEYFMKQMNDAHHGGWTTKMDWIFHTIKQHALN
Sequence of PI3Kα (P27986 whole entry partner, species assumed): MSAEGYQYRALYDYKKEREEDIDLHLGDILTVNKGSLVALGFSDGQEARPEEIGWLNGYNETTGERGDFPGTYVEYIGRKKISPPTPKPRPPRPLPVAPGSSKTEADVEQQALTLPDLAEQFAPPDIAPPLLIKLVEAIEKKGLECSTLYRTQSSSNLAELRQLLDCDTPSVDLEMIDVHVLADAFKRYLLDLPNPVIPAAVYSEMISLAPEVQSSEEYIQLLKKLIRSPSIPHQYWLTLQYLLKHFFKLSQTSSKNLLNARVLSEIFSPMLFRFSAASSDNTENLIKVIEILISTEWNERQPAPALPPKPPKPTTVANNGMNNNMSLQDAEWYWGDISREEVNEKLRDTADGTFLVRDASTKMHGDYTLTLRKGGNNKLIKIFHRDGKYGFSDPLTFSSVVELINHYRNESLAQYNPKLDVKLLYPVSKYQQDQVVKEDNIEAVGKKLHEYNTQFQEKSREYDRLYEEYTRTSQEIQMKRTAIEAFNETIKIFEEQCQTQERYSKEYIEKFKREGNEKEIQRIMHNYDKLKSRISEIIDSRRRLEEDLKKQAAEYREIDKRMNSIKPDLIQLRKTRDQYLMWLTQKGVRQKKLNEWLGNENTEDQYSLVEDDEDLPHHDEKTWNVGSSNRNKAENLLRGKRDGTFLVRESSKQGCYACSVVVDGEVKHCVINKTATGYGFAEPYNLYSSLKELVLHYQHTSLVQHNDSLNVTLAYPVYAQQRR

Sequence of PI3Kγ (P48736 whole entry, species assumed): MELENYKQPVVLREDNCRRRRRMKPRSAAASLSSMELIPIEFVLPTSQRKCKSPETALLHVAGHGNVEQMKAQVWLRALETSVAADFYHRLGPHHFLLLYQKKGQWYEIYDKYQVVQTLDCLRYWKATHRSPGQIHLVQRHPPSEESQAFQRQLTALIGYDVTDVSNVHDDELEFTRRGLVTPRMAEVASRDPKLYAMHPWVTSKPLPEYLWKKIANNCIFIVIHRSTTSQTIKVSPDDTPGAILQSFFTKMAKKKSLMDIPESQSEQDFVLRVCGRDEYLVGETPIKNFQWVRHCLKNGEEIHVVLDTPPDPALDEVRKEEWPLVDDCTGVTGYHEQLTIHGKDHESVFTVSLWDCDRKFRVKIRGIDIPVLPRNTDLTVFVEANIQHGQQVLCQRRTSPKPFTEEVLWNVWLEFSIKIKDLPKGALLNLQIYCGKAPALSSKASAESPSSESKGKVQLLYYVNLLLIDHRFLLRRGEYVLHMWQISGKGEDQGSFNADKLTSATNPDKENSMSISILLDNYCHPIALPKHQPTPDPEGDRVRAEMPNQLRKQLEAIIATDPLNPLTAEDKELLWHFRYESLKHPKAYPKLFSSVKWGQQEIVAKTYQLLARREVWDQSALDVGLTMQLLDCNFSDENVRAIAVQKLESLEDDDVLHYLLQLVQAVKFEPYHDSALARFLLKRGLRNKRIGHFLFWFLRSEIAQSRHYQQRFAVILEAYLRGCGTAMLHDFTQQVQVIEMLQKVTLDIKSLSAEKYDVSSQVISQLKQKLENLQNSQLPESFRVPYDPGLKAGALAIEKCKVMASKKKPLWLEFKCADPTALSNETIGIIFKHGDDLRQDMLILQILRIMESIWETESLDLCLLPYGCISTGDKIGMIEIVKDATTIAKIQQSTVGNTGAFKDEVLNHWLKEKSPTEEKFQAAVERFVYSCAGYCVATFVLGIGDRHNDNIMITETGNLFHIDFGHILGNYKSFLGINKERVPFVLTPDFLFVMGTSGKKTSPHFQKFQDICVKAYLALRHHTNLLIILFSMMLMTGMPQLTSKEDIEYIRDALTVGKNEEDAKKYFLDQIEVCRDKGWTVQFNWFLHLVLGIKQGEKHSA

Take `CCn1ccc2c(N3CCOCC3)nc(-c3ccc(NC(=O)Nc4ccc(C(=O)O)cc4)cc3)nc21` [Compound 60, 4-({[4-(7-ethyl-4-morpholin-4-yl-7H-pyrrolo[2,3-d]pyrimidin-2-yl)phenyl]carbamoyl}amino)benzoic acid]: the IC50 (in general, the concentration that inhibits the measured activity by half) at PI3Kγ is 0.12 µM; at mTOR Kinase (FLAG-TOR), 0.00086 µM; at PI3Kα it was 0.0145 µM.
In the same order, the values of `CCn1ccc2c(N3CCOCC3)nc(-c3ccc(NC(=O)Nc4ccc(C(=O)N5CCC(N6CCOCC6)CC5)cc4)cc3)nc21` [Compound 77, 1-[4-(7-ethyl-4-morpholin-4-yl-7H-pyrrolo[2,3-d]pyrimidin-2-yl)phenyl]-3-{4-[(4-morpholin-4-ylpiperidin-1-yl)carbonyl]phenyl}urea] are 0.064 µM, 0.00175 µM and 0.0055 µM.
In the same order, the values of `CCn1ccc2c(N3CCOCC3)nc(-c3ccc(NC(=O)Nc4ccc(C(=O)NCCN5CCCC5)cc4)cc3)nc21` [Compound 76, 4-({[4-(7-ethyl-4-morpholin-4-yl-7H-pyrrolo[2,3-d]pyrimidin-2-yl)phenyl]carbamoyl}amino)-N-(2-pyrrolidin-1-ylethyl)benzamide] are 0.038 µM, 0.00072 µM and 0.002 µM.
On the same counts, the results for `CCn1ccc2c(N3CCOCC3)nc(-c3ccc(NC(=O)Nc4ccc(C(=O)N5CCN(c6ccccn6)CC5)cc4)cc3)nc21` [Compound 75, 1-[4-(7-ethyl-4-morpholin-4-yl-7H-pyrrolo[2,3-d]pyrimidin-2-yl)phenyl]-3-{4-[(4-pyridin-2-ylpiperazin-1-yl)carbonyl]phenyl}urea] are 0.036 µM, 0.00565 µM and 0.008 µM.
As for `Cn1ccc2c(N3CCOCC3)nc(-c3ccc(NC(=O)Nc4cccnc4)cc3)nc21` [Compound 44, 1-[4-(7-methyl-4-morpholin-4-yl-7H-pyrrolo[2,3-d]pyrimidin-2-yl)phenyl]-3-pyridin-3-ylurea], the IC50 on PI3Kγ was found to be 0.144 µM; at mTOR Kinase (FLAG-TOR) it was 0.0019 µM; on PI3Kα, 0.026 µM.
In the same order, the values of `CNCCN(C)C(=O)c1ccc(NC(=O)Nc2ccc(-c3nc(N4CCOCC4)c4ccn(CC(F)(F)F)c4n3)cc2)cc1` [Compound 53, N-methyl-N-[2-(methylamino)ethyl]-4-[({4-[4-morpholin-4-yl-7-(2,2,2-trifluoroethyl)-7H-pyrrolo[2,3-d]pyrimidin-2-yl]phenyl}carbamoyl)amino]benzamide] are 0.016 µM, 0.00057 µM and less than 0.0021 µM.
In the same order, the values of `CN(C)CCNC(=O)Nc1ccc(-c2nc(N3CCOCC3)c3ccn(CCN(C)C)c3n2)cc1` [Compound 14, 1-[2-(dimethylamino)ethyl]-3-(4-{7-[2-(dimethylamino)ethyl]-4-morpholin-4-yl-7H-pyrrolo[2,3-d]pyrimidin-2-yl}phenyl)urea] are 0.554 µM, 2.15 µM and 0.078 µM.
On the same counts, the results for `CC(C)n1ccc2c(N3CCOCC3)nc(-c3ccc(NC(=O)Nc4ccc(C(=O)O)cc4)cc3)nc21` [Compound 90, 4-({[4-(7-isopropyl-4-morpholin-4-yl-7H-pyrrolo[2,3-d]pyrimidin-2-yl)phenyl]carbamoyl}amino)benzoic acid] are 0.151 µM, 0.00081 µM and 0.0257 µM.
For the compound `CC(C)NCCn1ccc2c(N3CCOCC3)nc(-c3ccc(NC(=O)Nc4ccncc4)cc3)nc21` [Compound 32, 1-(4-{7-[2-(isopropylamino)ethyl]-4-morpholin-4-yl-7H-pyrrolo[2,3-d]pyrimidin-2-yl}phenyl)-3-pyridin-4-ylurea], the IC50 on PI3Kγ stood at 0.245 µM; at mTOR Kinase (FLAG-TOR) it was 0.023 µM; on PI3Kα, 0.037 µM.
With `CCn1ccc2c(N3CCOCC3)nc(-c3ccc(NC(=O)Nc4ccc(C(=O)OC)cc4)cc3)nc21` [Compound 59, methyl 4-({[4-(7-ethyl-4-morpholin-4-yl-7H-pyrrolo[2,3-d]pyrimidin-2-yl)phenyl]carbamoyl}amino)benzoate], the IC50 turned out to be 0.562 µM on PI3Kγ, 0.0047 µM on mTOR Kinase (FLAG-TOR) and 0.166 µM at PI3Kα.
As to `CN1CCN(C(=O)c2ccc(NC(=O)Nc3ccc(-c4nc(N5CCOCC5)c5ccn(CC(F)(F)F)c5n4)cc3)cc2)CC1` [Compound 54, 1-{4-[(4-methylpiperazin-1-yl)carbonyl]phenyl}-3-{4-[4-morpholin-4-yl-7-(2,2,2-trifluoroethyl)-7H-pyrrolo[2,3-d]pyrimidin-2-yl]phenyl}urea], the values for the IC50 on PI3Kγ, at mTOR Kinase (FLAG-TOR) and on PI3Kα were 0.016 µM, 0.0011 µM and 0.0019 µM, respectively.
As for `CCn1ccc2c(N3CCOCC3)nc(-c3ccc(NC(=O)Nc4ccc(C(=O)NCCN5CCCCC5)cc4)cc3)nc21` [Compound 68, 4-({[4-(7-ethyl-4-morpholin-4-yl-7H-pyrrolo[2,3-d]pyrimidin-2-yl)phenyl]carbamoyl}amino)-N-(2-piperidin-1-ylethyl)benzamide], the IC50 at PI3Kγ came out at 0.061 µM; on mTOR Kinase (FLAG-TOR) it was 0.00091 µM; at PI3Kα, 0.004 µM.
Turning to `CCn1ccc2c(N3CCOCC3)nc(-c3ccc(NC(=O)Nc4ccc(C(=O)N5CCSCC5)cc4)cc3)nc21` [Compound 71, 1-[4-(7-ethyl-4-morpholin-4-yl-7H-pyrrolo[2,3-d]pyrimidin-2-yl)phenyl]-3-[4-(thiomorpholin-4-ylcarbonyl)phenyl]urea], the IC50 on PI3Kγ is 0.039 µM; on mTOR Kinase (FLAG-TOR) it was 0.0042 µM; on PI3Kα it was 0.0035 µM.
For `CCn1ccc2c(N3CCOCC3)nc(-c3ccc(NC(=O)Nc4ccc(C(=O)N5CCN(C(C)C)CC5)cc4)cc3)nc21` [Compound 91, 1-[4-(7-ethyl-4-morpholin-4-yl-7H-pyrrolo[2,3-d]pyrimidin-2-yl)phenyl]-3-(4-{[4-(1-methylethyl)piperazin-1-yl]carbonyl}phenyl)urea], the IC50 at PI3Kγ was 0.05 µM; at mTOR Kinase (FLAG-TOR) it was 0.00073 µM; at PI3Kα, 0.004 µM.
Take `CCn1ccc2c(N3CCOCC3)nc(-c3ccc(NC(=O)Nc4ccc(C(=O)N5CCC(N6CCCC6)CC5)cc4)cc3)nc21` [Compound 69, 1-[4-(7-ethyl-4-morpholin-4-yl-7H-pyrrolo[2,3-d]pyrimidin-2-yl)phenyl]-3-{4-[(4-pyrrolidin-1-ylpiperidin-1-yl)carbonyl]phenyl}urea]: the IC50 at PI3Kγ came out at 0.024 µM; on mTOR Kinase (FLAG-TOR) it was 0.0008 µM; at PI3Kα it was 0.0021 µM.
On to `CCn1ccc2c(N3CCOCC3)nc(-c3ccc(NC(=O)NC)cc3)nc21` [Compound 96, 1-[4-(7-ethyl-4-morpholin-4-yl-7H-pyrrolo[2,3-d]pyrimidin-2-yl)phenyl]-3-methylurea], for which the IC50 on PI3Kγ amounted to 1.54 µM; on mTOR Kinase (FLAG-TOR), 0.0049 µM; at PI3Kα, 0.14 µM.
On the same counts, the results for `O=C(NCCO)Nc1ccc(-c2nc(N3CCOCC3)c3ccn(CC(F)(F)F)c3n2)cc1` [Compound 42, 1-(2-hydroxyethyl)-3-{4-[4-morpholin-4-yl-7-(2,2,2-trifluoroethyl)-7H-pyrrolo[2,3-d]pyrimidin-2-yl]phenyl}urea] are 0.39 µM, 0.00094 µM and 0.11 µM.
On the same counts, the results for `Nc1nc2cc(-c3nc(N4CCOCC4)c4ccn(CC(F)(F)F)c4n3)ccc2[nH]1` [Compound 45, 5-[4-morpholin-4-yl-7-(2,2,2-trifluoroethyl)-7H-pyrrolo[2,3-d]pyrimidin-2-yl]-1H-benzimidazol-2-amine] are 0.506 µM, 0.0365 µM and 0.045 µM.
In the same order, the values of `CCn1cc(CN(C)C)c2c(N3CCOCC3)nc(-c3ccc(NC(=O)NC)cc3)nc21` [Compound 97, 1-(4-{5-[(dimethylamino)methyl]-7-ethyl-4-morpholin-4-yl-7H-pyrrolo[2,3-d]pyrimidin-2-yl}phenyl)-3-methylurea] are 12 µM, 0.047 µM and 1.89 µM.
As to `CCn1ccc2c(N3CCOCC3)nc(-c3ccc(NC(=O)Nc4ccc(C(=O)N5CCNCC5)cc4)cc3)nc21` [Compound 67, 1-[4-(7-ethyl-4-morpholin-4-yl-7H-pyrrolo[2,3-d]pyrimidin-2-yl)phenyl]-3-[4-(piperazin-1-ylcarbonyl)phenyl]urea], the figures for the IC50 at PI3Kγ, on mTOR Kinase (FLAG-TOR) and at PI3Kα were 0.008 µM, 0.00099 µM and less than 0.0018 µM, respectively.
Consider `CCn1ccc2c(N3CCOCC3)nc(-c3ccc(NC(=O)Nc4ccc(C(=O)NCCCN(C)C)cc4)cc3)nc21` [Compound 74, N-[3-(dimethylamino)propyl]-4-({[4-(7-ethyl-4-morpholin-4-yl-7H-pyrrolo[2,3-d]pyrimidin-2-yl)phenyl]carbamoyl}amino)benzamide], for which the IC50 came out at 0.032 µM at PI3Kγ, 0.0012 µM at mTOR Kinase (FLAG-TOR) and 0.0019 µM on PI3Kα.
On the same counts, the results for `O=C(Nc1ccc(-c2nc(N3CCOCC3)c3ccn(CC(F)(F)F)c3n2)cc1)OCCO` [Compound 43, 2-hydroxyethyl{4-[4-morpholin-4-yl-7-(2,2,2-trifluoroethyl)-7H-pyrrolo[2,3-d]pyrimidin-2-yl]phenyl}carbamate] are 1.72 µM, 0.0039 µM and 0.57 µM.
Take `CCN1CCN(C(=O)c2ccc(NC(=O)Nc3ccc(-c4nc(N5CCOCC5)c5ccn(CC)c5n4)cc3)cc2)CC1` [Compound 70, 1-[4-(7-ethyl-4-morpholin-4-yl-7H-pyrrolo[2,3-d]pyrimidin-2-yl)phenyl]-3-{4-[(4-ethylpiperazin-1-yl)carbonyl]phenyl}urea]: the IC50 at PI3Kγ was found to be 0.021 µM; on mTOR Kinase (FLAG-TOR), 0.0015 µM; at PI3Kα it was 0.0025 µM.

Values taken from patent US20100003250A1, “(2-ARYL-7H-PYRROLO[2,3-D]PYRIMIDIN-4-YL)MORPHOLINE COMPOUNDS, THEIR USE AS MTOR KINASE AND PI3 KINASE INHIBITORS, AND THEIR SYNTHESES” (Wyeth, priority 2008, published 2010).
